# Literature values, collected in patent US20080317729A1, “Ammonium Salts and Ammonium Salt/Mineral Salt Clathrate Compounds for Use as Vehicle and Effective Form for Pharmaco-Medical Applications and for Use as Phase Transfer Agents for Chemical Applications” (priority 2004, published 2008).
structure (smiles),measurement,value
CCN(CC)CCOC(=O)c1ccc(N)cc1 [diprocainium carbonate],solubility,moderately dissoluble
